Data reported in PMC6766590, “Protocatechuic acid from chicory is bioavailable and undergoes partial glucuronidation and sulfation in healthy humans” (Food Science & Nutrition, 2019).
Read-outs that look alike come from different tables or passages of the source.

Legend:
[1] = design: method as in Wang, Zou, et al., 2011; conditions: ApoE^‐/‐ mice, single oral gavage 25 mg/kg; ref Wang, Zou, et al., 2011; cited from earlier work
[2] = Single-dose pharmacokinetic trial, serum protocatechuic acid and conjugates after 150 g of chicory; type: in vivo, human
Procedure: (§1) A single-dose pharmacokinetic trial was conducted to evaluate the acute (24 hr) bioavailability of protocatechuic acid from chicory juice. Qualified participants were asked to consume foods low in phytochemicals for three days prior to the chicory juice intervention. Participants were also asked to consume a diet without vegetables, fruits, and plant-based beverages for the day prior to the intervention and the intervention day. The purpose of these dietary restrictions was to reduce any residual dietary phenolic compounds from the body (these compounds are typically cleared from blood, urine, and feces within 48 hr of consumption) and to ensure phenolic compounds present in the blood, urine, and feces samples collected during the intervention were derived from the chicory juice alone. Prior to administering the chicory juice, overnight fasting blood, urine, and feces (first-morning void) were collected at time 0 hr as the baseline. A single dose of chicory juice (150 g of chicory) was then orally ingested by each of the participants under close observation by the researcher in 5 min. No other foods or beverages were provided at this time. The chicory juice was prepared together approximately 10 min prior to this pharmacokinetic trial. One portion of chicory juice was kept to quantify the content of protocatechuic acid. […] Fecal samples from 0-24 hr after chicory juice drinking were collected. […] Mycophenolic acid was selected as the internal standard. The pharmacokinetic parameters of protocatechuic acid in the free, glucuronide, and sulfate conjugates were calculated using DAS 2.1 (BioGuider Co.), with a noncompartmental model: maximum serum concentrations (Cmax); time to achieve maximum serum concentrations (Tmax); the area under the concentration-time curve to 24 hr (AUC0-24); and terminal elimination half-life (T1/2z). The apparent bioavailability of protocatechuic acid together was quantified using AUC0-24 divided by its ingested amount. Urinary and fecal recoveries were calculated using the total content of urinary and fecal protocatechuic acid divided by its ingested amount.

[3] = design: method as in Chen et al., (2012); conditions: CF‐1 mice, oral 50 mg/kg; ref Chen et al., (2012); cited from earlier work
[4] = system: human fecal suspensions with gut microbiota; conditions: for Substrate recovered at the initial time point from the fecal suspensions: 0 hr, initial substrate dose 1 µmol; for Substrate amount in human fecal suspension: initial dose 1 µmol, 37°C anaerobic
Procedure: The column was a Zorbax SB‐C18 column (250 mm × 4.6 mm, 5.0 µm). […] Quantification of phenolic acids was carried out by an internal standard method using calibration curves. […] For each analytical run, a standard curve was prepared in the appropriate matrix (methanol, blank serum, urine, or feces) and used to determine the content of phenolic acids in chicory or biological samples. The detection limit for phenolic acids (10‐fold baseline noise) under the conditions used in this study was 1 ng/ml in serum and 5 ng/ml in urine and feces, and values below this concentration were reported as zero. […] Mycophenolic acid was selected as the internal standard.
Fresh feces (2 g) collected from human adults were mixed with 10 ml of brain–heart infusion medium, and the resulting solution was filtered with autoclaved gauze to remove the dregs before use. […] The mixture was fermented at 37°C under anaerobic conditions using the anaerobic chamber. […] All incubations were performed in triplicate. At the same time, the fecal suspension was incubated without phenolic acids as a negative control.

[5] = Urinary excretion/recovery of protocatechuic acid and conjugates after 150 g of chicory; type: in vivo, human
Procedure: as §1

[6] = Fecal excretion/recovery of protocatechuic acid and conjugates after 150 g of chicory; type: in vivo, human
Procedure: as §1

[7] = system: mouse gut microbiota; design: method as in Lin et al., 2016; conditions: ref Lin et al., 2016; cited from earlier work
[8] = system: human gut microbiota; design: method as in Gonthier et al., 2006; conditions: ref Gonthier et al., 2006; cited from earlier work

For O=C(O)c1ccc(O)c(O)c1 [PCA‐F, 3,4‐dihydroxybenzoic acid], the “Maximal level in plasma” value [1] is listed as “approximately 4.3 µM”, the “T1/2z, terminal elimination half‐life” value ([2]; 16 healthy adults, 150 g of chicory oral, serum) is listed as 1.72 ± 0.35 h and the “Recovery in blood circulation” value ([2]; 16 healthy adults, 150 g of chicory oral, AUC0‐24 divided by ingested amount) is listed as 15.60% ± 4.21%. The half-life ([2]; both sexes, human, serum, 16 healthy adults, 150 g of chicory oral, read-out: T1/2z in serum (converted)) was 103 ± 21 min, the AUC(0-t) ([2]; both sexes, human, 16 healthy adults, 150 g of chicory oral, serum, read-out: AUC0−24, area under the concentration–time curve to 24 hr) was 16.9 ± 3 µM·h and the Cmax ([2]; both sexes, human, 16 healthy adults, 150 g of chicory oral, serum, read-out: Maximum (peak) serum concentration, Cmax) was 3.27 µM. For the same compound, the Tmax ([2]; both sexes, human, 16 healthy adults, 150 g of chicory oral, serum, read-out: Time of peak serum concentration) was 1 h, the “Ingested protocatechuic acid recovered in the blood circulation, urine, and feces together” value ([2]; both, human, in vivo, po) was 48.74% and the “Recovery in blood circulation” value ([2]; both, human, in vivo, po) was “about 23.79 % of the ingested dose”. The AUC(0-t) ([2]; female, human, oral, women, n = 8, 150 g of chicory, serum, read-out: AUC0−24) was 17.2 ± 1.81 µM·h, the Cmax ([2]; female, human, oral, women, n = 8, 150 g of chicory, serum, read-out: Cmax) was 3.45 µM and the half-life ([2]; female, human, oral, women, n = 8, 150 g of chicory, serum, read-out: T1/2z (converted)) was 109 ± 28.8 min. The Tmax ([2]; female, human, oral, women, n = 8, 150 g of chicory, serum, read-out: Tmax) was 1 h, the AUC(0-t) ([2]; male, human, oral, men, n = 8, 150 g of chicory, serum, read-out: AUC0−24) was 16.6 ± 1.63 µM·h and the Cmax ([2]; male, human, oral, men, n = 8, 150 g of chicory, serum, read-out: Cmax) was 3.1 µM. For the same compound, the half-life ([2]; male, human, oral, men, n = 8, 150 g of chicory, serum, read-out: T1/2z (converted)) was 97.8 ± 2.4 min, the Tmax ([2]; male, human, oral, men, n = 8, 150 g of chicory, serum, read-out: Tmax) was 1 h and the “Recovery in blood circulation” value ([2]; men, n = 8, 150 g of chicory) was 17.18 ± 4.05 % of the ingested dose. The “Recovery in blood circulation” value ([2]; women, n = 8, 150 g of chicory) was 14.01 ± 3.74 % of the ingested dose, the Peak plasma level [3] was 73.6 µM and the “Formation of protocatechuic acid from gallic, caffeic, 5‐caffeoylquinic, caftaric or chicoric acid in human fecal suspensions” value ([4]; 1 µmol substrate, up to 24 hr, listed as protocatechuic acid) was “could not be detected”. For the same compound, the Recovery in urine ([5]; 16 healthy adults, 150 g of chicory oral, 0-24 hr urine) was 12.17 % of the ingested dose, the “Time at which urinary excretion reached the plateau” value ([5]; 16 healthy adults, after chicory juice consumption) was 6 h and the dose excreted ([5]; human, 150 g of chicory (as juice), 16 healthy adults, 150 g of chicory oral, 0-24 hr urine) was 5.02%. The Recovery in urine ([5]; men, n = 8, 150 g of chicory) was 5.66 ± 3.87 % of the ingested dose, the Recovery in urine ([5]; women, n = 8, 150 g of chicory) was 4.38 ± 2.28 % of the ingested dose and the Recovery in feces ([6]; 16 healthy adults, 150 g of chicory oral, 0-24 hr feces) was 12.79 % of the ingested dose. The “Mean content in feces” value ([6]; 16 healthy adults, feces 0-24 hr after 150 g of chicory) was 8.00 ± 3.17 µmol, the dose excreted ([6]; human, 150 g of chicory (as juice), 16 healthy adults, 150 g of chicory oral, 0-24 hr feces) was 3.25% and the Recovery in feces ([6]; men, n = 8, 150 g of chicory) was 2.52 ± 0.87 % of the ingested dose. For the same compound, the Recovery in feces ([6]; women, n = 8, 150 g of chicory) was 3.97 ± 1.38 % of the ingested dose.
For O=C(O)/C=C/c1ccc(O)c(O)c1 [Caffeic acid], the “Substrate recovered at the initial time point from the fecal suspensions” value (“Substrate recovered” for short) [4] was 86.0 ± 3.0%, the “Substrate amount in human fecal suspension” value (“Substrate amount” below) ([4]; incubation time 0 h) was 0.86 ± 0.03 µmol and the “Substrate amount” value ([4]; incubation time 6 h) was 0.16 ± 0.11 µmol.
In the case of O=c1c(O)c(-c2ccc(O)c(O)c2)oc2cc(O)cc(O)c12 [quercetin], the “Catabolism into protocatechuic acid by mouse gut microbiota” value [7] is given as “intensively catabolized into protocatechuic acid”.
For O=C(/C=C/c1ccc(O)c(O)c1)O[C@@H](C(=O)O)[C@@H](O)C(=O)O [Caftaric acid], the “Generation of protocatechuic acid by human gut microbiota metabolism” value [8] is given as “cannot generate protocatechuic acid”, the “Substrate recovered” value [4] is given as 91.5% ± 4.7% and the “Substrate amount” value ([4]; incubation time 0 h) is given as 0.92 ± 0.05 µmol.
For O=C(O)c1cc(O)c(O)c(O)c1 [Gallic acid], the “Substrate recovered” value [4] was 95.8 ± 3.3%, the “Substrate amount” value ([4]; incubation time 0 h) was 0.96 ± 0.03 µmol and the “Substrate amount” value ([4]; incubation time 6 h) was 0.75 ± 0.14 µmol. For the same compound, the “Substrate amount” value ([4]; incubation time 12 h) was 0.60 ± 0.18 µmol and the “Substrate amount” value ([4]; incubation time 24 h) was 0.27 ± 0.23 µmol.
In the case of O=c1cc(-c2ccc(O)cc2)oc2cc(O)cc(O)c12 [apigenin], the “Catabolism into protocatechuic acid by mouse gut microbiota” value [7] is listed as “intensively catabolized into protocatechuic acid”.
In the case of O=C(/C=C/c1ccc(O)c(O)c1)O[C@@H]1C[C@@](O)(C(=O)O)C[C@@H](O)[C@@H]1O [5‐caffeoylquinic acid], the “Substrate recovered” value [4] is reported as 79.3 ± 5.7% and the “Substrate amount” value ([4]; incubation time 0 h) is reported as 0.79 ± 0.06 µmol.
